How the values were obtained:
[1] = tested on: highly cross-resistant clinical HIV-1 strains; experiment: In vitro activity against highly PI-resistant clinical HIV-1 strains from AIDS patients; assay type: cell-based; conditions: for potency against the multidrug resistant strains of HIV: multidrug resistant vs wild type strains
Protocol: The sensitivities of HIV-1LAI, HIV-1Ba-L, HIV-2EHO and the primary HIV-1 isolates against various drugs were determined as previously described with minor modifications (Shiraska et al., Proc. Natl. Acad. Sci. USA, 92, 2398-2402 (1995)).

HIV-1UIC-P62 = experiment: Sensitivity of compound 1-selected HIV-1 (passage 62) to PIs; assay type: cell-based; conditions: for sensitivity compared with the parental HIV-1NL4-3: HIV-1UIC-P62; for IC50 fold greater than that of HIV-1NL4-3: HIV-1UIC-P62 (passage 62 with 2 μM 1) vs parental HIV-1NL4-3
D30N mutant HIV protease = D30N mutant HIV protease (Human immunodeficiency virus type 1 group M subtype B, UniProt P03367, D530N); experiment: Effect of D30N protease mutation on inhibitor binding

Structure (SMILES)	level of resistance of the clinical strains ([1]; compared to wild-type clinical strain HIV-1ERS104pre)	potency against the multidrug resistant strains of HIV [1]	sensitivity compared with the parental HIV-1NL4-3 (HIV-1UIC-P62)	IC50 fold greater than that of HIV-1NL4-3 (HIV-1UIC-P62)	effect of D30N mutation on binding (D30N mutant HIV protease)
CC(C)(C)NC(=O)[C@@H]1C[C@@H]2CCCC[C@@H]2CN1C[C@@H](O)[C@H](Cc1ccccc1)NC(=O)[C@H](CC(N)=O)NC(=O)c1ccc2ccccc2n1 [Compound 4, Saquinavir]	3-31 fold	dramatically less potent	as sensitive	–	–
CC(C)CN(C[C@@H](O)[C@H](Cc1ccccc1)NC(=O)O[C@H]1CCOC1)S(=O)(=O)c1ccc(N)cc1 [Compound 2, Amprenavir]	–	dramatically less potent	–	–	–
CC(C)c1nc(CN(C)C(=O)N[C@H](C(=O)N[C@@H](Cc2ccccc2)C[C@H](O)[C@H](Cc2ccccc2)NC(=O)OCc2cncs2)C(C)C)cs1 [Compound 5, Ritonavir]	–	dramatically less potent	as sensitive	–	–
CC(C)(C)NC(=O)[C@@H]1CN(Cc2cccnc2)CCN1C[C@@H](O)C[C@@H](Cc1ccccc1)C(=O)N[C@H]1c2ccccc2C[C@H]1O [Compound 6, Indinavir]	–	dramatically less potent	–	7 fold	–
Cc1c(O)cccc1C(=O)N[C@@H](CSc1ccccc1)[C@H](O)CN1C[C@H]2CCCC[C@H]2C[C@H]1C(=O)NC(C)(C)C [Compound 7, Nelfinavir]	–	dramatically less potent	–	5 fold	–
COc1ccc(S(=O)(=O)N(CC(C)C)C[C@@H](O)[C@H](Cc2ccccc2)NC(=O)O[C@H]2CO[C@H]3OCC[C@H]32)cc1 [Compound 1]	–	–	–	–	no effect

— patent US7285566B2, “Resistance-repellent retroviral protease inhibitors” (priority 2002, dated 2007)
